Reference: US20030022878A1, “TELOMERASE INHIBITOR” (priority 1997, published 2003)
Values joined by “and” are separate entries in the source; they are usually repeats but may differ in a detail not shown here. Identical values can stand only once.

Tests used:
[1] = tested on: U937 cells; assay: Effect of EGCG on cell growth in subculture; type: cell-based; conditions: U937 subculture lines, medium with 15 μM EGCG
Protocol: (§1) U937 cells and HT29 cells were each subcultured on a medium with and without EGCG to study the effect of addition of EGCG on cell growth. The medium used was the same as used in Example 4. Five subculture lines for U937 cells and nine subculture lines for HT29 cells were prepared. The first culture of each line was made by inoculating cells of each stock culture at a density of 5×10^5 cells per 10-cm dish. For each subculture, two lines were cultured on a medium without EGCG (control lines) and the rest of the lines were cultured on a medium supplemented with 15 μM EGCG. Cells were passaged, sampled and counted every four days. The incubation medium was freshly changed every day. […] PD is the number of cycles in which the cell population doubles during cell growth and is calculated by monitoring cell counts using a hemocytometer.

[2] = tested on: HT29 cells; assay: Effect of EGCG on cell growth in subculture; type: cell-based; conditions: HT29 subculture lines, medium with 15 μM EGCG
Protocol: as §1

[3] = tested on: experimentally-induced tumors; conditions: nude mice with experimentally-induced tumors; cited from earlier work
[4] = tested on: HT29 cells; assay: TRF (telomere) length by Southern blotting; type: cell-based; conditions: HT29 cells in crisis, 15 μM EGCG
Protocol: HT 29 cells from PD57 to PD60 in cell crisis were pooled and the genomic DNA was prepared by a salting-out/ethanol precipitation method (Stratagene). Further, integrity of the isolated genomic DNA was confirmed by gel electrophoresis (ethidium bromide staining).
The isolated genomic DNA (10 μg) was digested with HinfI and RsaI and the resulting digests were subjected to Southern blotting by the ordinary method, after which DNA fragments were detected using a TeloQuant assay kit (PharmMingen).
Accordingly, if a genomic DNA is digested with the abovementioned restriction enzymes, only the telomere region would remain undigested. This DNA fragment is called the Terminal Restriction Fragment (TRF) which can be detected by Southern blotting to analyze telomere lengths. TRFs of EGCG-treated or untreated HT29 cells obtained as mentioned above were detected using a TeloQuant assay kit. […] It was observed that TRFs in the cells which entered crisis due to the EGCG treatment (●) were shortened by about 1.1 kb as compared to those in the untreated cells (◯). Further, it was confirmed that successive EGCG treatment of HT29 cells caused telomere diminishment.

[5] = biological target: T1, telomerase, HT29 cells (Homo sapiens, UniProt O14746); assay: Telomerase activity in extract of EGCG-treated cells (mechanism); type: cell-based; conditions: 15 μM EGCG for 2 hours, washed, extracted
T1 construct: endogenous in cells; host or cells: HT29
T1 sequence (O14746 whole entry): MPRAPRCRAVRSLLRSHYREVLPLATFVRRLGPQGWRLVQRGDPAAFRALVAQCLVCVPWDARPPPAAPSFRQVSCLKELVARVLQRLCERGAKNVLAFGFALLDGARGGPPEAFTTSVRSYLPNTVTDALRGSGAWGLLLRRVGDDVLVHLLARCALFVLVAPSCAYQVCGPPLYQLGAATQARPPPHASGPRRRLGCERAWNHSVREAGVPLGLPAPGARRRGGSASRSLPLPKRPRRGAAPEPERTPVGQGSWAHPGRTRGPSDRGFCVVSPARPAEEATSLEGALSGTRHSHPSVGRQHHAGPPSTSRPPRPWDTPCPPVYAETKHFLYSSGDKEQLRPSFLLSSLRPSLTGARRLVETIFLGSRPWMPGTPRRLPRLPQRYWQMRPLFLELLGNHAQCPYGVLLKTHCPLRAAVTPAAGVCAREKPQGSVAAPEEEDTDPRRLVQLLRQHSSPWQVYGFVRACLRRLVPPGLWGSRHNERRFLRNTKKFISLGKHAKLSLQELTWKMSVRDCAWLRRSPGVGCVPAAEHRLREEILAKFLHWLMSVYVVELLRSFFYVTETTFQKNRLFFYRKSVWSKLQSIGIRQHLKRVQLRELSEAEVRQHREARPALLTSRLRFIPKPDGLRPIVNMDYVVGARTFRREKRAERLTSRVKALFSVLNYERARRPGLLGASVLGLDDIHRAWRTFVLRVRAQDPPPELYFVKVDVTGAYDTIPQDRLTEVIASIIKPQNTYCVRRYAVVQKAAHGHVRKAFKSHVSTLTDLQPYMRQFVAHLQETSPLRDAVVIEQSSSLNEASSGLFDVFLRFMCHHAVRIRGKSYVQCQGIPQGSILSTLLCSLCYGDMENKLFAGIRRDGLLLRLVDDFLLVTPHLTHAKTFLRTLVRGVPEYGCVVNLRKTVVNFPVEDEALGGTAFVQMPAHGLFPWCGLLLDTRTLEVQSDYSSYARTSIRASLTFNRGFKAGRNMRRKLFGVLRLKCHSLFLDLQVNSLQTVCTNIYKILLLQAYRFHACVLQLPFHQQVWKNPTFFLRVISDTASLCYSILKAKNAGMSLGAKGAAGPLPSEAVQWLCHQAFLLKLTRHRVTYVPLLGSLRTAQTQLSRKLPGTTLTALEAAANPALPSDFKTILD
Protocol: (§2) The cells were treated with 15 μM EGCG for 2 hours and washed with ice-cold PBS. The cell mass obtained by centrifugation was suspended in a TRAP assay buffer and the resulting suspension was quick-frozen with liquid nitrogen. After melting, the suspension was allowed to stand in an ice bath for 30 minutes, then the resulting extract was centrifuged to obtain the supernatant as a cell extract. A test compound, TS primer (50 ng), 50 μM dNTPs, and T4g32 protein (Behringer-Manheim) were added to a specified volume of the cell extract (corresponding to 200 to 1000 cells), and the admixture was incubated at 20° C. for 30 minutes. After reaction, CX primer (100 ng) was added to the reaction solution, then PCR was performed in the presence of Gene Taq DNA polymerase (2 U) and ITAS (10^−18 g), i.e., (94° C., 40 seconds→50° C., 40 seconds→72° C., 60 seconds)×30 cycles→72° C., 2 minutes, to obtain PCR products. The PCR products thus obtained were resolved by polyacrylamide gel electrophoresis and the resulting DNA bands stained with SYBR Green (Takara Shuzo) were detected by irradiation with a UV transilluminator. The intensity of each band was quantitatively analyzed using the NIH Image 1.60 software program. Telomerase activity was expressed as the intensity of a sample band relative to that of the band corresponding to the ITAS fragment. […]

[6] = biological target: T2, telomerase, U937 cells (Homo sapiens, UniProt O14746); assay: as above; type: cell-based; conditions: 15 μM EGCG for 2 hours, washed, extracted
T2 construct: endogenous in cells; host or cells: U937
T2 sequence (O14746 whole entry): as above
Protocol: as §2

[7] = biological target: T3, intracellular telomerase activity, monoblastoid leukemia U937 cells (Homo sapiens, UniProt O14746); assay: Telomerase inhibiting activity in cells (Streptolysin O permeabilization, TRAP); type: cell-based; conditions: 15 μM EGCG for 2 hours
T3 construct: endogenous in cells; host or cells: U937
T3 sequence (O14746 whole entry): as above
Protocol: (§3) The telomerase inhibiting activity of EGCG was assayed in monoblastoid leukemia U937 cells (American Type Culture Collection, ATCC) and colon adenocarcinoma HT29 cells.
(§4) An RPMI1640 medium (Nissui) supplemented with 10% fetal bovine serum (FBS) was used for U937 cells, and an RPMI1640 medium supplemented with 5% FBS and 5% fetal calf serum (FCS) was used for HT29 cells.
(§5) The cells were incubated in a 15 μM EGCG solution for 2 hours and washed in PBS. The washed cells were suspended in an RPMI1640 medium (without serum) at a concentration of 2×10^6 cells/ml, then Streptolysin O (Sigma, 5 U/ml), TS primer (10 μM), spermidine (1 mM), and Imipramine (50 μM) were added, and the admixture was incubated at room temperature for 10 minutes. Streptolysin O is a substance which increases the permeability of a substance through the cell membrane, and enables the TS primers and other substances to be incorporated into the cell. […]
(§6) The telomerase products thus obtained were resolved by polyacrylamide gel electrophoresis, after which DNA bands were stained with SYBR Green (Takara Shuzo) and detected by irradiation with a UV transilluminator. The intensity of each band was quantitatively analyzed using the NIH Image 1.60 software program and telomerase activity was expressed as the intensity of a sample band relative to that of the band corresponding to the ITAS fragment (control). […]

[8] = biological target: T4, intracellular telomerase activity, colon adenocarcinoma HT29 cells (Homo sapiens, UniProt O14746); assay: as above; type: cell-based; conditions: 15 μM EGCG for 2 hours
T4 construct: endogenous in cells; host or cells: HT29
T4 sequence (O14746 whole entry): as above
Protocol: as §3, §4, §5, §6

[9] = tested on: malignant melanoma cells; conditions: oral administration; cited from earlier work
[10] = biological target: T5, telomerase (Homo sapiens, UniProt O14746); assay: Telomerase inhibiting activity in cell-free system (TRAP method); type: biochemical
T5 construct: the resulting extract was centrifuged to obtain the supernatant as a cell extract for activity measurement; endogenous in cells
T5 sequence (O14746 whole entry): as above
Protocol: Telomerase inhibiting activity of EGCG, EGC, ECG, and EC (all products of Sigma) was measured according to the Telomeric Repeat Amplification Protocol (TRAP) method described by Kim et al. (Kim, N. W. et al., Science, 266, 2011-2015, 1994) as follows:
Cells were washed with ice-cold PBS (phosphate buffered saline) and suspended again in PBS to count the cells. After centrifuging this cell suspension, the resulting cell mass was suspended in a TRAP assay buffer (10 mM Tris-HCl, pH 7.5, 1 mM MgCl2, 1 mM EDTA, 0.5% CHAPS, 10% glycerine, 5 mM 2-mercaptoethanol, and 0.1 mM 4-(2-aminoethyl)-benzenesulfonyl fluoride hydrochlorine), then the suspension was quick-frozen with liquid nitrogen. After melting, the suspension was allowed to stand in an ice bath for 30 minutes for extraction, then the resulting extract was centrifuged to obtain the supernatant as a cell extract for activity measurement. […]
The PCR products obtained in the abovementioned procedure were resolved by polyacrylamide gel electrophoresis and the resulting DNA bands stained with SYBR Green (Takara Shuzo) were detected by irradiation with a UV transilluminator.
The detected bands were photographed. The intensity of each band was quantitatively analyzed using the NIH Image 1.60 software program. Telomerase activity was expressed as the intensity of a sample band relative to that of the band corresponding to the ITAS fragment (control).
Telomerase activity in reaction solutions of 8 different EGCG concentrations ranging from 0.1 to 20 μM was measured in the same manner as described in Example 1 except that a primer, PS, was used at two different concentrations. […]
Telomerase activity in reaction solutions containing powder sample 1 obtained in Production Example 1, powder sample 2 (a tea catechin extract: THEA-FLAN 90S, a trade name, a product of ITO EN, Ltd), and EGCG at different concentrations in the following ranges was measured in the same manner as described in Example 1. […]

Substance: (−) epigallocatechin gallate [EGCG]
- day at which cells entered cell crisis [1]: 53 days and 44 days and 29 days
- day at which cells entered cell crisis [2]: 75 days and 57 days
- cancer cell growth in nude mice [3]: effectively suppressed
- shortening of TRFs compared to untreated cells [4]: about 1.1 kb
- telomerase activity tested in vitro in extract after treatment of cells [5]: no effect
- telomerase activity tested in vitro in extract after treatment of cells [6]: no effect
- intracellular telomerase activity [7]: markedly inhibited
- intracellular telomerase activity [8]: markedly inhibited
- metastasis of malignant melanoma cells [9]: suppressed
- Ki ([10]; Dixon plot, EGCG 0.1 to 20 μM, primer at two concentrations): ~100 nM
- telomerase inhibiting activity compared among catechins (FIG. 1) ([10]; TRAP, cell extract): highest inhibiting activity
- Telomerase inhibition, IC50 ([10]; concentration suppressing DNA amplification of control by 50%, samples tested in μg/ml ranges): 0.25
